Data: patent US20230060873A1, “COMPOUNDS AND METHODS FOR FORMING ION CHANNELS IN BIOLOGICAL MEMBRANES” (Washington University, priority 2021, published 2023)
≈ marks a conversion by molar mass, not a printed value.

Experiments:
B. subtilis cells = experiment: Lactate dehydrogenase release (resofurin fluorescence), lariat ether; type: cell-based, Bacillus subtilis; conditions: 2 μM, 37° C, lithium lactate/NAD+ solution
Text: A well-established assay was utilized to measure cell lysis by monitoring the release of the enzyme lactate dehydrogenase (LDH), which is ubiquitous in the cytoplasm of all cell types. The tetrameric active form of LDH catalyzes the final step of the glycolysis in B. subtilis and has a molecular weight of approximately 146 kDa in, with a nearly globular shape of an approximated radius of 80 Å (PDB ID: 3PQD). […] LDH couples two redox reactions, the first involving the interconversion of pyruvate (oxidized) and L-lactate (reduced) and the second, the interconversion of NAD^+ (oxidized) and NADH (reduced). The NADH oxidation can be coupled to the diaphorase-catalyzed […] of resazurin to resofurin, which is highly fluorescent. When the concentrations of L-lactate, NAD^+, diaphorase, and resazurin are saturated, the rate of increase in the resofurin fluorescence is limited only by the amount of available LDH in the medium.
To prepare the experiment, a 2-mL liquid culture of B. subtilis cells was grown at 37° C. in media until OD600=0.600, and then collected by centrifugation at 2000 rpm during 3 min. […] Fluorescence intensity was recorded each second using a Horiba Fluoromax 4 spectrometer (excitation wavelength=550 nm; emission wavelength=583 nm). […] To normalize, the fluorescence was divided by the fluorescence level just before timepoint t4. […]

HEK293T cells = type: cell-based; conditions: human, 48 h
Method: The cyto-toxicity was determined by measuring the minimum inhibitory concentrations (MIC) for this series of dialkylated lariat ethers in the Gram-negative bacteria Escherichia coli, the Gram-positive bacteria Bacillus subtilis, and human embryonic kidney (HEK293T) cells.
On HEK293T cells. Human embryonic kidneys (HEK293T) cells (Thermofisher Scientific) were grown attached in cell culture dishes, detached by trypsin treatment and diluted in Dulbecco's Modified Eagle's Medium (DMEM) medium supplemented with phenol red indicator (Thermofisher scientific) until the density reached 100,000 viable cells/mL. An aliquot of 1 mL of this cell suspension was added to each well of a 24-wells culture plate. After 2 h, when the cells were already attached, a custom amount of 400, 100, 10 or 5 mM TFE solution of the dialkylated diaza(18-crown-6) ether compounds were added until final concentration of 400, 200, 100, 50, 20, 15, 10, 8, 6, 5, 4, 3, 2 or 1 μM were reached. The final TFE concentration never was over 0.1% v/v. Negative controls in the presence of TFE 0.1% v/v or the absence of any treatment were done for each plate. The plates were cultured at 37° C. The MIC was determined as the lowest compound concentration that killed all the cells after 48 h, as judged by trypan blue dye. […]

- minimum inhibitory concentration (MIC) (HEK293T cells): 6 µM (≈ 3.26 µg/mL)
Compound: CCCCCCCCCCN1CCOCCOCCN(CCCCCCCCCC)CCOCCOCC1 [LEC10, Didecyl diaza(18-crown-6)]
- resofurin fluorescence (LDH release) (B. subtilis cells): rapid rise in the fluorescence
